Columns and labels:
DDR1 = biological target: T1, DDR1 (Homo sapiens, UniProt Q08345); assay: LanthaScreen Europium Kinase Binding assay, DDR1; settings: 5 nM DDR1, 20 nM Kinase Tracer 178, 1 h at rt; Ki from IC50 by Cheng-Prusoff; read-out: Ki DDR1
T1 construct: purchased Carna Biosciences
Outline: (§1)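 Compounds were incubated 1 h at rt with 5 nM DDR1 plus 20 nM Kinase Tracer 178, or 5 nM DDR2 plus 10 nM tracer, and 2 nM Eu anti-GST antibody in HEPES pH 7.5 buffer. Read-out was the TR-FRET 665/615 nm ratio. IC50 came from a 4-parameter fit and was converted to Ki by Cheng-Prusoff.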

DDR2 = biological target: T2, DDR2 (Homo sapiens, UniProt Q16832); assay: LanthaScreen Europium Kinase Binding assay, DDR2; settings: 5 nM DDR2, 10 nM Kinase Tracer 178, 1 h at rt; Ki from IC50 by Cheng-Prusoff; read-out: Ki DDR2
T2 construct: purchased Life Technologies
T2 sequence (Q16832 22-855): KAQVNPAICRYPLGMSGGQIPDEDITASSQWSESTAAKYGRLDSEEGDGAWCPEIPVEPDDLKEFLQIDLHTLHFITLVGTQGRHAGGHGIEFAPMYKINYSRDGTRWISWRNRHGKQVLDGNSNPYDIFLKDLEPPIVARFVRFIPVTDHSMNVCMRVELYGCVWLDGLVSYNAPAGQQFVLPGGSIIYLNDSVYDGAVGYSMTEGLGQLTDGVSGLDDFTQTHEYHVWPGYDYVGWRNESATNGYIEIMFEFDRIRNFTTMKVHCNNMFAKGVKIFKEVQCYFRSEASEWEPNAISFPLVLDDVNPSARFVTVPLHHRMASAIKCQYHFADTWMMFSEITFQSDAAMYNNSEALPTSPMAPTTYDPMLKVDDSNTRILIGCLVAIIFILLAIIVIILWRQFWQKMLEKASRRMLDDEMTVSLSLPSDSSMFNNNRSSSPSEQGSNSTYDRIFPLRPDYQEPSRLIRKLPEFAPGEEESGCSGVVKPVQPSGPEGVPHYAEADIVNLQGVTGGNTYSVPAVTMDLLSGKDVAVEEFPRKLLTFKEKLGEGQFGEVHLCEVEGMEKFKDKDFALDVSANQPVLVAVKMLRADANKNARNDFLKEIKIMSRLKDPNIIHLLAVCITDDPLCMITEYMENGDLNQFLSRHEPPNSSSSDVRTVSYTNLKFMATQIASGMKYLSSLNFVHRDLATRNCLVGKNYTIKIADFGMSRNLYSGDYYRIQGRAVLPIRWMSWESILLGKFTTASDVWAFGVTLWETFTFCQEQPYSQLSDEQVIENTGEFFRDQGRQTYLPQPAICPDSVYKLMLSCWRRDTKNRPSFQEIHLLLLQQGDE
Outline: as §1

T1 sequence (Q08345 19-913): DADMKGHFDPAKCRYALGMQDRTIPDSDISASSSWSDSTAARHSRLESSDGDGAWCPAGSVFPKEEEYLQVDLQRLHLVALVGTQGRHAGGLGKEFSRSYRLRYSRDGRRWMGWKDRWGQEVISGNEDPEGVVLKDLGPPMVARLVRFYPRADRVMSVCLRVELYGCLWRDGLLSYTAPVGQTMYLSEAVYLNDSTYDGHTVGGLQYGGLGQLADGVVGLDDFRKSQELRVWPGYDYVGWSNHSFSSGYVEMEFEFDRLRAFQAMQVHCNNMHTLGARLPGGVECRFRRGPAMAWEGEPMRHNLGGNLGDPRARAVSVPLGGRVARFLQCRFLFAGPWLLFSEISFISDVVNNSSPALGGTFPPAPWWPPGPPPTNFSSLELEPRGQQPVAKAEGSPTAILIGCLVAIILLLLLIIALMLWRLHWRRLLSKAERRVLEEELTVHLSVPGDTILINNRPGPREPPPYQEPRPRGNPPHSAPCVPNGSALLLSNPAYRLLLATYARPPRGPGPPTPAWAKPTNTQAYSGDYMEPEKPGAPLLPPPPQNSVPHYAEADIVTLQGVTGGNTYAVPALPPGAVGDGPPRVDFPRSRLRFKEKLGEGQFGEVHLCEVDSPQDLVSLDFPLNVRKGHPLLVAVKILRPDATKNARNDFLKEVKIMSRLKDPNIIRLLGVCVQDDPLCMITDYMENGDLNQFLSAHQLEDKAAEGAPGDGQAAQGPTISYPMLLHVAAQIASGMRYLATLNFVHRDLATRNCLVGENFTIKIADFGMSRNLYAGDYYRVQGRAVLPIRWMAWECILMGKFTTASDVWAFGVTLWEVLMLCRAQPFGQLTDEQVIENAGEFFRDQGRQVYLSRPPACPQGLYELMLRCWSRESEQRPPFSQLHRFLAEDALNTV

## CNC(=O)c1cc(N2CC[C@@H](c3cc(C(=O)Nc4cncc(C(F)(F)F)c4)ccc3C)C2)ccn1 [Example 87, (S)-N-methyl-4-(3-(2-methyl-5-((5-(trifluoromethyl)pyridin-3-yl)carbamoyl)phenyl)pyrrolidin-1-yl)picolinamide]
DDR1
  Ki: < 5 nM
DDR2
  Ki: 5 to 25 nM

## Cc1ccc(C(=O)Nc2cncc(C(F)(F)F)c2)cc1[C@@H]1CCN(c2cnn(C)c2)C1 [Example 88, (S)-4-methyl-3-(1-(1-methyl-1H-pyrazol-4-yl)pyrrolidin-3-yl)-N-(5-(trifluoromethyl)pyridin-3-yl)benzamide]
DDR1
  Ki: 5 to 25 nM
DDR2
  Ki: 5 to 25 nM

## Cc1ccc(C(=O)Nc2cncc(C(F)(F)F)c2)cc1[C@@H]1CCN(c2cnn3ccc(C(=O)N4CCOCC4)cc23)C1 [Example 89, (S)-4-methyl-3-(1-(5-(morpholine-4-carbonyl)pyrazolo[1,5-a]pyridin-3-yl)pyrrolidin-3-yl)-N-(5-(trifluoromethyl)pyridin-3-yl)benzamide]
DDR1
  Ki: < 5 nM
DDR2
  Ki: 5 to 25 nM

## Cc1ccc(C(=O)Nc2cc(OC(F)F)ccn2)cc1[C@@H]1CCN(c2cnn3cccnc23)C1 [Example 91, N-[4-(difluoromethoxy)-2-pyridyl]-4-methyl-3-[(3S)-1-pyrazolo[1,5-a]pyrimidin-3-ylpyrrolidin-3-yl]benzamide]
DDR1
  Ki: < 5 nM
DDR2
  Ki: < 5 nM

## Cc1ccc(C(=O)Nc2cc(OC(F)F)ccn2)cc1[C@@H]1CCN(c2cnccn2)C1 [Example 92, N-[4-(difluoromethoxy)-2-pyridyl]-4-methyl-3-[(3S)-1-pyrazin-2-ylpyrrolidin-3-yl]benzamide]
DDR1
  Ki: < 5 nM
DDR2
  Ki: 5 to 25 nM

## Cc1ccc(C(=O)Nc2cc(OC(F)F)ccn2)cc1[C@@H]1CCN(c2cnccc2C#N)C1 [Example 93, 3-[(3S)-1-(4-cyano-3-pyridyl)pyrrolidin-3-yl]-N-[4-(difluoromethoxy)-2-pyridyl]-4-methyl-benzamide]
DDR1
  Ki: < 5 nM
DDR2
  Ki: < 5 nM

## Cc1ccc(C(=O)Nc2cc(OC(F)F)ccn2)cc1[C@@H]1CCN(c2cncc(C#N)n2)C1 [Example 94, (S)-3-(1-(6-cyanopyrazin-2-yl)pyrrolidin-3-yl)-N-(4-(difluoromethoxy)pyridin-2-yl)-4-methyl-benzamide]
DDR1
  Ki: < 5 nM
DDR2
  Ki: 5 to 25 nM

## CCc1cc(NC(=O)c2ccc(C)c([C@@H]3CCN(c4cnn5cccnc45)C3)c2)no1 [Example 95, (S)-N-(5-ethylisoxazol-3-yl)-4-methyl-3-(1-(pyrazolo[1,5-a]pyrimidin-3-yl)pyrrolidin-3-yl)benzamide]
DDR1
  Ki: < 5 nM
DDR2
  Ki: < 5 nM

## CCc1cc(NC(=O)c2ccc(C)c([C@@H]3CCN(c4cnn5ccncc45)C3)c2)no1 [Example 96, (S)-N-(5-ethylisoxazol-3-yl)-4-methyl-3-(1-(pyrazolo[1,5-a]pyrazin-3-yl)pyrrolidin-3-yl)benzamide]
DDR1
  Ki: < 5 nM
DDR2
  Ki: < 5 nM

## COc1cnc2c(N3CC[C@@H](c4cc(C(=O)Nc5cncc(C(F)(F)F)c5)ccc4C)C3)cnn2c1 [Example 97, (S)-3-(1-(6-methoxypyrazolo[1,5-a]pyrimidin-3-yl)pyrrolidin-3-yl)-4-methyl-N-(5-(trifluoromethyl)pyridin-3-yl)benzamide]
DDR1
  Ki: < 5 nM
DDR2
  Ki: 5 to 25 nM

## Cc1ccc(C(=O)Nc2cncc(OC(F)(F)F)c2)cc1[C@@H]1CCN(c2cnn3ccncc23)C1 [Example 98, (S)-4-methyl-3-(1-(pyrazolo[1,5-a]pyrazin-3-yl)pyrrolidin-3-yl)-N-(5-(trifluoromethoxy)pyridin-3-yl)benzamide]
DDR1
  Ki: < 5 nM
DDR2
  Ki: < 5 nM

## CNc1ncc(N2CC[C@@H](c3cc(C(=O)Nc4cncc(C(F)(F)F)c4)ccc3C)C2)cn1 [Example 99, (S)-4-methyl-3-(1-(2-(methylamino)pyrimidin-5-yl)pyrrolidin-3-yl)-N-(5-(trifluoromethyl)pyridin-3-yl)benzamide]
DDR1
  Ki: < 5 nM
DDR2
  Ki: 5 to 25 nM

## Cc1ccc(C(=O)Nc2cncc(C(F)(F)F)c2)cc1[C@@H]1CCN(c2cn[nH]c2)C1 [Example 100, (S)-3-(1-(1H-pyrazol-4-yl)pyrrolidin-3-yl)-4-methyl-N-(5-(trifluoromethyl)pyridin-3-yl)benzamide]
DDR1
  Ki: < 5 nM
DDR2
  Ki: 5 to 25 nM

## Cc1ccc(C(=O)Nc2cncc(C(F)(F)F)c2)cc1[C@@H]1CCN(c2cnc3[nH]nc(CN(C)C)c3c2)C1 [Example 101, (S)-3-(1-(3-((dimethylamino)methyl)-1H-pyrazolo[3,4-b]pyridin-5-yl)pyrrolidin-3-yl)-4-methyl-N-(5-(trifluoromethyl)pyridin-3-yl)benzamide]
DDR1
  Ki: < 5 nM
DDR2
  Ki: 5 to 25 nM

## Cc1ccc(C(=O)Nc2cncc(C(F)(F)F)c2)cc1[C@@H]1CCN(c2cnc3[nH]cc(C(=O)NC4COC4)c3c2)C1 [Example 102, (S)-5-(3-(2-methyl-5-((5-(trifluoromethyl)pyridin-3-yl)carbamoyl)phenyl)pyrrolidin-1-yl)-N-(oxetan-3-yl)-1H-pyrrolo[2,3-b]pyridine-3-carboxamide]
DDR1
  Ki: < 5 nM
DDR2
  Ki: 5 to 25 nM

## Cc1ccc(C(=O)Nc2cncc(C(F)(F)F)c2)cc1[C@@H]1CCN(c2cncc(OCCO)c2)C1 [Example 103, (S)-3-(1-(5-(2-hydroxyethoxy)pyridin-3-yl)pyrrolidin-3-yl)-4-methyl-N-(5-(trifluoromethyl)pyridin-3-yl)benzamide]
DDR1
  Ki: < 5 nM
DDR2
  Ki: < 5 nM

## Cc1ccc(C(=O)Nc2cncc(C(F)(F)F)c2)cc1[C@@H]1CCN(c2ncnc3sccc23)C1 [Example 106, (S)-4-methyl-3-(1-(thieno[2,3-d]pyrimidin-4-yl)pyrrolidin-3-yl)-N-(5-(trifluoromethyl)pyridin-3-yl)benzamide]
DDR1
  Ki: 5 to 25 nM
DDR2
  Ki: 5 to 25 nM

## Cc1ccc(C(=O)Nc2cncc(C(F)(F)F)c2)cc1[C@@H]1CCN(c2ncnc3ccsc23)C1 [Example 107, (S)-4-methyl-3-(1-(thieno[3,2-d]pyrimidin-4-yl)pyrrolidin-3-yl)-N-(5-(trifluoromethyl)pyridin-3-yl)benzamide]
DDR1
  Ki: < 5 nM
DDR2
  Ki: < 5 nM

## CNC(=O)c1cc2ncnc(N3CC[C@@H](c4cc(C(=O)Nc5cncc(C(F)(F)F)c5)ccc4C)C3)c2s1 [Example 108, (S)-N-methyl-4-(3-(2-methyl-5-((5-(trifluoromethyl)pyridin-3-yl)carbamoyl)phenyl)pyrrolidin-1-yl)thieno[3,2-d]pyrimidine-6-carboxamide]
DDR1
  Ki: < 5 nM
DDR2
  Ki: < 5 nM

## COc1ccc(C(=O)Nc2cncc(C(F)(F)F)c2)cc1C1CCN(c2cnn3cccnc23)C1 (centres unmarked) [Example 112, 4-methoxy-3-(1-(pyrazolo[1,5-a]pyrimidin-3-yl)pyrrolidin-3-yl)-N-(5-(trifluoromethyl)pyridin-3-yl)benzamide]
DDR1
  Ki: < 5 nM
DDR2
  Ki: 5 to 25 nM

## O=C(Nc1cncc(C(F)(F)F)c1)c1ccc(OC(F)F)c(C2CCN(c3cncnc3)C2)c1 (centres unmarked) [Example 113, 4-(difluoromethoxy)-3-(1-(pyrimidin-5-yl)pyrrolidin-3-yl)-N-(5-(trifluoromethyl)pyridin-3-yl)benzamide]
DDR1
  Ki: < 5 nM
DDR2
  Ki: < 5 nM

## O=C(Nc1cncc(C(F)(F)F)c1)c1ccc(C(F)F)c(C2CCN(c3cncnc3)C2)c1 (centres unmarked) [Example 120, 4-(difluoromethyl)-3-(1-(pyrimidin-5-yl)pyrrolidin-3-yl)-N-(5-(trifluoromethyl)pyridin-3-yl)benzamide]
DDR1
  Ki: 5 to 25 nM
DDR2
  Ki: 25 to 100 nM

## Cc1ccc(C(=O)c2cncc(C(F)(F)F)c2)cc1[C@@H]1CCN(c2cnc3ccc(CO)cn23)C1 [Example 123, (S)-(3-(1-(6-(hydroxymethyl)imidazo[1,2-a]pyridin-3-yl)pyrrolidin-3-yl)-4-methylphenyl)(5-(trifluoromethyl)pyridin-3-yl)methanone]
DDR1
  Ki: < 5 nM
DDR2
  Ki: < 5 nM

## Cn1nc(NC(=O)c2ccc(C(F)F)c(C3CCN(c4cncnc4)C3)c2)cc1C(C)(C)C (centres unmarked) [Example 124, N-(5-(tert-butyl)-1-methyl-1H-pyrazol-3-yl)-4-(difluoromethyl)-3-(1-(pyrimidin-5-yl)pyrrolidin-3-yl)benzamide]
DDR1
  Ki: < 5 nM
DDR2
  Ki: 5 to 25 nM

## Cc1ccc(C(=O)Nc2cncc(C(F)(F)F)c2)cc1[C@@H]1CCN(c2ncnc3cc(Br)sc23)C1 [Example 125, (S)-3-(1-(6-bromothieno[3,2-d]pyrimidin-4-yl)pyrrolidin-3-yl)-4-methyl-N-(5-(trifluoromethyl)pyridin-3-yl)benzamide]
DDR1
  Ki: 5 to 25 nM
DDR2
  Ki: 5 to 25 nM
